# Assay results reported in patent publication US11452720B2, “Crystalline polymorphs of the free base of 2-hydroxy-6-((2-(1-isopropyl-1H-pyrazol-5-yl)pyridin-3-yl)methoxy)benzaldehyde” (Global Blood Therapeutics, Inc., priority 2014, dated 2022).
# Entries after “also recorded” stand apart in the source; their conditions may differ. Where a name gives a salt, the structure may show the parent alone.
# Experiments:
# Format in all cases: physicochemical
# [1] = Dynamic vapor sorption (DVS) with post-DVS XRPD; conditions: for DVS weight loss from 95 to 5% RH: desorption 95 to 5% RH; for post-DVS XRPD result: material recovered from the DVS experiment; for DVS weight gain from 5 to 95% RH: sorption 5 to 95% RH
# Description: Dynamic vapor sorption (DVS) data were collected on a VTI SGA-100 Vapor Sorption Analyzer. NaCl and PVP were used as calibration standards. Samples were not dried prior to analysis. Adsorption and desorption data were collected over a range from 5 to 95% RH at 10% RH increments under a nitrogen purge. The equilibrium criterion used for analysis was less than 0.0100% weight change in 5 minutes with a maximum equilibration time of 3 hours. Data were not corrected for the initial moisture content of the samples.
# [2] = Chemical and physical stability evaluation of Free Base Form I (UPLC, XRPD)
# Description: Three conditions were used; open to 25° C./60% RH, open to 40° C./75% RH, and closed to 60° C. Physical stability was evaluated by XRPD. Chemical stability was determined through UPLC and ^1H NMR, when applicable. Materials were tested after 1, 7, and 14 days of exposure.
# [3] = Estimated transition temperature and relative thermodynamic stability of free base forms
# From the text: Phase transitions of solids can be thermodynamically reversible or irreversible. Crystalline forms which transform reversibly at a specific transition temperature (T) are called enantiotropic polymorphs. If the crystalline forms are not interconvertable under these conditions, the system is monotropic (one thermodynamically stable form). Several rules have been developed to predict the relative thermodynamic stability of polymorphs and whether the relationship between the polymorphs is enantiotropic or monotropic. The heat of fusion rule is applied within this study. The heat of fusion rule states that if the higher melting form has the lower heat of fusion then the two forms are enantiotropic, otherwise they are monotropic.
# The estimated transition temperature between two enantiotropically related forms can be calculated from their melt onsets and heats of fusion based on the equation shown below.
# [4] = Physical stability evaluation of Free Base Form II and Material N (modulated DSC / temperature and humidity exposure, then XRPD); conditions: for change in physical form by XRPD: 40° C./75% RH, 80° C./80% RH for 9 days; for change in physical form by XRPD after modulated DSC: underlying heating rate 0.02° C. min^−1
# Description: DSC was modulated at low underlying heating rate, followed by X-ray powder diffraction. A low underlying heating rate was used of 0.02° C. min^−1. The temperature was 80° C. for form N and 90° C. for form II. Exposure was essentially isothermal, covering a temperature range with sensitivity to detect changes in physical form. The resultant materials were examined by X-ray powder diffraction.
# Forms II and N were exposed to 40° C./75% relative humidity (RH), 80° C., 80° C./80% RH for 9 days followed by X-ray powder diffraction.
# [5] = Ambient storage of Form II, reanalysis by XRPD; conditions: after 7 days
# From the text: The form is known to be thermodynamically metastable, relative to Material N, at this condition; however, the kinetics of polymorph conversion may be slow at ambient conditions in the solid state.
# [6] = Physical stability of the HCl salt exposed to water (disproportionation, XRPD)
# Description: Solutions were prepared by adding enough solids to a given solvent so that excess solids were present. The mixture was then agitated in a sealed vial at either ambient or an elevated temperature. After a given amount of time, the solids were isolated for analysis.
# (§1) The HCl salt (termed “HCl Form I”) was subjected to various stress conditions and monitored by XRPD to evaluate physical stability. […] Disproportionation is further evident with wet milling or in direct contact with water (e.g. slurry) as shown by the presence of Free Base Forms I or II, identified by XRPD. […] (after 12 hrs), 40° C. (after 6 hrs), and at 40° C./48 mmHg (after 6 hrs). • Free Base Material C becomes evident at more extreme conditions involving elevated temperatures. Heating HCl Form I up to 125° C. induces the loss of acidic volatiles (judged visually by use of pH paper held above sample). […] Exposing the HCl salt to 60° C. under vacuum for 6 days provides the same result. The nature of Material C is not established
# [7] = Physical stability of the HCl salt with grinding (XRPD); conditions: 30 min
# Description: Selected material was milled utilizing a Reitch Mill. The material was loaded into an agate lined milling vessel followed by the addition of an agate ball. The vessel was then placed on to the mill and milled for approximately 30 minutes at frequency of […]. The milling was stopped approximately every 10 minutes and material scraped from the wall before further milling.
# [8] = Physical stability of the HCl salt exposed to elevated temperature and/or vacuum (XRPD)
# Description: Selected materials were stressed at elevated related humidity and/or temperature. Relative humidity jars (saturated salt solutions used to generate desired relative humidity) were utilized to store selected samples. The following relative humidity jars were utilized during evaluation: 75% RH (NaCl) and 60% (NaBr), to investigate the effects of humidity. Temperatures utilized were ambient, 30, 40, 60, and 100-125° C.
# Selected materials were stressed under reduced pressure for a set time period. Initial stressing was conducted with the in-house vacuum system with absolute pressure readings <500 mTorr, typically 30 to 50 mTorr (0.030 to 0.05 mm Hg). Additional vacuum stressing was conducted at 48 mmHg utilizing a portable lab vacuum and bleed to simulate conditions similar to those expected during process.
# as §1
# [9] = Extended solvent mediated maturation of form II / form N mixtures in hexane; conditions: temperatures of 20° C. and lower
# Description: Extended solvent mediated maturation studies were conducted with 1:1 w/w mixtures of polymorphic form II and form N. Hexane provided a good medium for solvent assessments. The temperatures used include −20° C., −10° C., 0° C., 10° C., 20° C., 30° C., 40° C. and 50° C. […] Solids derived from maturation at −20° C., −10° C., 0° C., 10° C., 20° C. were analyzed by X-ray powder diffraction.
# [10] = Disproportionation of the sulfate salt when precipitated with water; conditions: from solvents such as dimethyl sulfoxide and methanol when precipitated with water
# From the text: This invention arises in part out the discovery that an HCl salt of Compound 1 disproportionates or loses HCl, and a disproportionation of the HCl salt of Compound 1 in water generates the free base and disproportionation was facile upon exposure to elevated humidity, with wet milling, and in direct contact with water (e.g. slurry). The sulfate salt of Compound 1 also disproportionates from certain solvents such as dimethyl sulfoxide and methanol when precipitated with water. The volatilization of HCl was evident within hours of exposure to drying conditions. For example, partial conversion to the free base was observed within 12 hours at 30° C. Accordingly, the free base of Compound 1 provides a stabler chemical entity compared to the corresponding HCl or sulfate and such other salt.
structure (smiles),measurement,setting,value
"CC(C)n1nccc1-c1ncccc1COc1cccc(O)c1C=O [Form I, 2-hydroxy-6-((2-(1-isopropyl-1H-pyrazol-5-yl)pyridin-3-yl)methoxy)benzaldehyde]",hygroscopicity by DVS isotherm,[1],not hygroscopic
same,weight gain and loss through sorption/desorption,[1]; DVS,0.2%
same,DVS weight loss from 95 to 5% RH,[1],0.22% loss from 95 to 5% RH
same,DVS weight loss upon equilibration at 5% RH,[1]; equilibration at 5% RH,0.02% loss upon equilibration at 5% RH
same,post-DVS XRPD result,[1],predominately Free Base Form I with a few additional peaks; also recorded: Free Base Form I + other Free Base Material
same,DVS weight gain from 5 to 95% RH,[1],0.22% gain from 5 to 95% RH
same,chemical stability: level of impurities by UPLC,"[2]; open 25° C./60% RH, open 40° C./75% RH, closed 60° C., after 14 days",did not rise significantly
same,physical stability by XRPD,"[2]; open to 25° C./60% RH, 1, 7 and 14 days",remained unchanged
same,physical stability by XRPD,"[2]; open to 40° C./75% RH and closed to 60° C., after 7 days",Free Base Form II was observed
"CC(C)n1nccc1-c1ncccc1COc1cccc(O)c1C=O [Form II, 2-hydroxy-6-((2-(1-isopropyl-1H-pyrazol-5-yl)pyridin-3-yl)methoxy)benzaldehyde]",Relative Stability,[3]; Above T^N-II,(II > I)
same,Relative Stability,[3]; Below 6° C.,N > II
same,Relative Stability,[3]; Between 6° C. and T^N-II,N > II > I
same,change in physical form by XRPD,[4]; 80° C.,No changes in physical form
same,change in physical form by XRPD after modulated DSC,[4]; 90° C.,No changes in physical form
same,XRPD after storage,[5],remained unchanged; also recorded: Free Base Form II
"CC(C)n1nccc1-c1ncccc1COc1cccc(O)c1C=O [HCl salt of Compound 1, 2-hydroxy-6-((2-(1-isopropyl-1H-pyrazol-5-yl)pyridin-3-yl)methoxy)benzaldehyde]",DVS weight loss from 95 to 5% RH,[1],0.09% loss from 95 to 5% RH
same,DVS weight gain upon equilibration at 5% RH,[1]; equilibration at 5% RH,0.03% gain upon equilibration at 5% RH
same,post-DVS XRPD result,[1],HCl I + Free Base Form I
same,post-DVS XRPD result,[1]; listed as HCl salt,disproportionation occurred
same,DVS weight gain from 5 to 95% RH,[1],0.10% gain from 5 to 95% RH
same,disproportionation on contact with water,[6]; contact with water,Immediate disproportionation occurs; also recorded: disproportionate immediately
same,XRPD Result,"[6]; vacuum dried, about 1 day",FB I
same,XRPD Result,"[6]; water slurry, about 5 min",Free base (FB) I
same,XRPD Result,"[6]; water slurry, about 5 min, listed as HCl salt",Free Base Form I
same,XRPD Result,"[6]; water slurry, about 6 days",FB I + FB II
same,XRPD Result,[7]; dry,HCl I
same,XRPD Result,[7]; wet,HCl I + FB I
same,time after which conversion to Free Base Form I was observed by XRPD,[8]; 30° C.,12 h
same,XRPD Result,"[8]; 30° C., 6 hrs",HCl I
same,XRPD Result,"[8]; 30° C., 12 hrs",HCl I + FB I
same,XRPD Result,"[8]; 30° C., 24 hrs",HCl I + FB I
same,time within which partial conversion to the free base was observed,"[8]; 30° C., drying conditions",≤ 12 h
same,time after which conversion to Free Base Form I was observed by XRPD,[8]; 40° C.,6 h
same,XRPD Result,"[8]; 40° C. vacuum, 6 hrs",HCl I + FB I
same,XRPD Result,"[8]; 40° C. vacuum, 12 hrs",HCl I + FB I
same,XRPD Result,"[8]; 40° C. vacuum, 24 hrs",HCl I + FB I
same,XRPD Result,"[8]; 40° C., 6 hrs",HCl I + FB I
same,XRPD Result,"[8]; 40° C., 12 hrs",HCl I + FB I
same,XRPD Result,"[8]; 40° C., 24 hrs",HCl I + FB I
same,time after which conversion to Free Base Form I was observed by XRPD,[8]; 40° C./48 mmHg,6 h
same,XRPD Result,"[8]; 60° C. vacuum, 6 days",HCl I + FB I +
same,XRPD Result,"[8]; 60° C. vacuum, 6 days, listed as HCl salt",same result
same,XRPD Result,"[8]; 60° C., 6 days",HCl I + FB I
same,XRPD Result,"[8]; 100 to 125° C., 20 min",HCl I + FB I +
same,XRPD Result,"[8]; 100 to 125° C., 20 min, listed as HCl Form I","mixture of HCl Form I, Free Base Form I, and Free Base Material C"
same,XRPD Result,"[8]; RT vacuum, 6 days",HCl I + FB I
"CC(C)n1nccc1-c1ncccc1COc1cccc(O)c1C=O [Material N, 2-hydroxy-6-((2-(1-isopropyl-1H-pyrazol-5-yl)pyridin-3-yl)methoxy)benzaldehyde]",Relative Stability,[3]; Below 6° C.,N > II
same,Relative Stability,[3]; Between 6° C. and T^N-II,N > II > I
same,change in physical form by XRPD,[4]; 80° C.,No changes in physical form
same,change in physical form by XRPD after modulated DSC,[4]; 80° C.,No changes in physical form
same,relative thermodynamic stability,[9],thermodynamically more stable than form II
"CC(C)n1nccc1-c1ncccc1COc1cccc(O)c1C=O [sulfate salt of Compound 1, 2-hydroxy-6-((2-(1-isopropyl-1H-pyrazol-5-yl)pyridin-3-yl)methoxy)benzaldehyde]",disproportionation of the salt,[10],disproportionates
